Results published in article PMC9959716, “Borate Transporters and SLC4 Bicarbonate Transporters Share Key Functional Properties” (Membranes, 2023).

T1: ScBor1p (Saccharomyces cerevisiae, UniProt P53838)
T1 construct: gene BOR1; full length, C-terminal deca-histidine tag, pRS423-derived plasmid, GAL1 promoter, expressed in S. cerevisiae BTSY2 (bor1 deletion)
T1 sequence (P53838 1-576): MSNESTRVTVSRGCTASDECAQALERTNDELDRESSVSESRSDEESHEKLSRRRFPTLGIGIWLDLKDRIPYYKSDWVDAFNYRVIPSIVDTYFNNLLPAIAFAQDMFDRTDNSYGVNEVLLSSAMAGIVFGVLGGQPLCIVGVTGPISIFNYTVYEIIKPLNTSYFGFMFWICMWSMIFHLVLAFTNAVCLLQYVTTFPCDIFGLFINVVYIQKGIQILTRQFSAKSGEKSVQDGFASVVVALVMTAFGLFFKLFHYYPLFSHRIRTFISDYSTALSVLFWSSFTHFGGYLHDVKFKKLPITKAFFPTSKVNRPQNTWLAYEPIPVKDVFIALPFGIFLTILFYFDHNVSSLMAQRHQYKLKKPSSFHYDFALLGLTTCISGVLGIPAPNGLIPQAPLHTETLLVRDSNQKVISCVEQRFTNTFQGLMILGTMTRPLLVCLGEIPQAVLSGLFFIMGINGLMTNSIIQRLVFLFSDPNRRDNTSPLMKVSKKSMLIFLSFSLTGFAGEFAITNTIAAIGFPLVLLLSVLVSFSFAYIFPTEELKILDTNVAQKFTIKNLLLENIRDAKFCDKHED

B1: S. cerevisiae borate transporter Bor1p (natural protein, UniProt P53838 1-576, looked up)
chain: T1 sequence (P53838 1-576)
notes: Borate transporter Bor1p of S. cerevisiae, wild type; Membrane protein; Monomer-dimer equilibrium; dimer promoted by lipids; also called ScBor1p; source: reconstituted into PC or PG proteoliposomes

Key:
ScBor1p = biological target: T1, ScBor1p; experiment: curcumin spectrophotometric quantification of intracellular borate (efflux) in yeast lysates; type: cell-based; settings: 1 mM boric acid for 90 min
[1] = biological target: the molecule itself; experiment: cross-linking; purified ScBor1p reconstituted into PC (16:0/18:1) proteoliposomes, 1:20 protein:lipid (w:w), detergent removed with Bio-beads; 0.15% glutaraldehyde, 5 min, room temperature; 20 mM Mes pH 6.5, 100 mM NaCl, 2% glycerol; control with 5 min pre-treatment with 2% SDS

Molecule	curcumin spectrophotometric quantification of intracellular borate (efflux) in y (ScBor1p)	binding result [1]
OB(O)O [borate]	Quantification of borate efflux activity in yeast cells expressing each indicated protein	–
B1	–	binds
